Assays:
Assay type in all cases: biochemical
EGFR^WT = EGFR^WT (Homo sapiens, UniProt P00533); test: in vitro EGFR kinase inhibition assay
VEGFR-2 = VEGFR-2 (Homo sapiens, UniProt P35968); test: in vitro kinase inhibition
EGFR^T790M = EGFR^T790M (Homo sapiens, UniProt P00533, T790M); test: in vitro EGFR kinase inhibition assay
Sequence of EGFR^T790M (P00533 669-1210 T790M limits assumed): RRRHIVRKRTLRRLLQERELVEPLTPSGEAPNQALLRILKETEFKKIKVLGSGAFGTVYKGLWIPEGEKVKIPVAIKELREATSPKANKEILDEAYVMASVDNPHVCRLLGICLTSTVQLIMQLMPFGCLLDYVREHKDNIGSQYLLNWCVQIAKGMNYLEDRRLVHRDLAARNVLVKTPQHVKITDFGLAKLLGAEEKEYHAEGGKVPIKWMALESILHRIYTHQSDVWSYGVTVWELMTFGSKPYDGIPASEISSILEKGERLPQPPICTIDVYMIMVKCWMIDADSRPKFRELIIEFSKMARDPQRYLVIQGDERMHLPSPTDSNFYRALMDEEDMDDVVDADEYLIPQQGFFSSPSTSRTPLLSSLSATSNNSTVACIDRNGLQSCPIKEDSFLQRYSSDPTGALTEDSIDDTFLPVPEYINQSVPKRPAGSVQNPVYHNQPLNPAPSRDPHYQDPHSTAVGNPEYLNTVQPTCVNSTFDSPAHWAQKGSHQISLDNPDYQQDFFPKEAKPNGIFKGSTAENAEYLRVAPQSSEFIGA

Sequence of VEGFR-2 (P35968 20-1356): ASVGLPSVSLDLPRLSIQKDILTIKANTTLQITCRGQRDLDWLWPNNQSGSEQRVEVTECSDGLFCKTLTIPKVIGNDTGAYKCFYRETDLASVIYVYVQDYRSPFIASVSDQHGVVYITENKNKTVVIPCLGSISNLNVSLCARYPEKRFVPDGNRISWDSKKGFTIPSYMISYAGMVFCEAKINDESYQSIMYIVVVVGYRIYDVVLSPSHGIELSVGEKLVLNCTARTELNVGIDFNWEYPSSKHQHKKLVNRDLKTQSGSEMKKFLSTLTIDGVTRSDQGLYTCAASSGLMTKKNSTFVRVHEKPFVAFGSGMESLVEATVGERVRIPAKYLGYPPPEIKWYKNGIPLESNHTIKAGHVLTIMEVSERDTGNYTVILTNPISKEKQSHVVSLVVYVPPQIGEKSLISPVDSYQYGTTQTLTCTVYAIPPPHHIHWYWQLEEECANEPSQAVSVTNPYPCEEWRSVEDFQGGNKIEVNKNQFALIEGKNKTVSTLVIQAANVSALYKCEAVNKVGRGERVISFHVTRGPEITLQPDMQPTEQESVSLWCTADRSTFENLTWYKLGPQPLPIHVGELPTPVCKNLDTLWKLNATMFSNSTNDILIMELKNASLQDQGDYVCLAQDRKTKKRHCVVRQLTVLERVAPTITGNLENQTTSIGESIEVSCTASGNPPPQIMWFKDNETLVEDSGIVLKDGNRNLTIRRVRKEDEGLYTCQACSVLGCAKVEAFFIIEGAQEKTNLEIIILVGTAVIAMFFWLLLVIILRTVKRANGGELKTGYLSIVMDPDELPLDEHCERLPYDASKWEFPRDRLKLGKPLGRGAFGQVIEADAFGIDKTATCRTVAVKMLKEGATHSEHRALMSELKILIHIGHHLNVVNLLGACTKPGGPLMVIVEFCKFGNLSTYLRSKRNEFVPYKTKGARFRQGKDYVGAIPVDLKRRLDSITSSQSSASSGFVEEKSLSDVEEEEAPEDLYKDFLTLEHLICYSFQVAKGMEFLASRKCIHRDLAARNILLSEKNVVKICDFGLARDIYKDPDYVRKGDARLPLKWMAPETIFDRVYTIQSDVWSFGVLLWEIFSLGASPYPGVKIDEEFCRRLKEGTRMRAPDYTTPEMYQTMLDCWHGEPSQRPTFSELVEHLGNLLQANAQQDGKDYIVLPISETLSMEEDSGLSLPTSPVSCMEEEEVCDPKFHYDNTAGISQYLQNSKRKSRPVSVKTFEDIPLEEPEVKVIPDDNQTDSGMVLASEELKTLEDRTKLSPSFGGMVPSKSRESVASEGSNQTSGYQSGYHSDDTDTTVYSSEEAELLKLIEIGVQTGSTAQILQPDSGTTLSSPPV
Sequence of EGFR^WT (P00533 25-1210): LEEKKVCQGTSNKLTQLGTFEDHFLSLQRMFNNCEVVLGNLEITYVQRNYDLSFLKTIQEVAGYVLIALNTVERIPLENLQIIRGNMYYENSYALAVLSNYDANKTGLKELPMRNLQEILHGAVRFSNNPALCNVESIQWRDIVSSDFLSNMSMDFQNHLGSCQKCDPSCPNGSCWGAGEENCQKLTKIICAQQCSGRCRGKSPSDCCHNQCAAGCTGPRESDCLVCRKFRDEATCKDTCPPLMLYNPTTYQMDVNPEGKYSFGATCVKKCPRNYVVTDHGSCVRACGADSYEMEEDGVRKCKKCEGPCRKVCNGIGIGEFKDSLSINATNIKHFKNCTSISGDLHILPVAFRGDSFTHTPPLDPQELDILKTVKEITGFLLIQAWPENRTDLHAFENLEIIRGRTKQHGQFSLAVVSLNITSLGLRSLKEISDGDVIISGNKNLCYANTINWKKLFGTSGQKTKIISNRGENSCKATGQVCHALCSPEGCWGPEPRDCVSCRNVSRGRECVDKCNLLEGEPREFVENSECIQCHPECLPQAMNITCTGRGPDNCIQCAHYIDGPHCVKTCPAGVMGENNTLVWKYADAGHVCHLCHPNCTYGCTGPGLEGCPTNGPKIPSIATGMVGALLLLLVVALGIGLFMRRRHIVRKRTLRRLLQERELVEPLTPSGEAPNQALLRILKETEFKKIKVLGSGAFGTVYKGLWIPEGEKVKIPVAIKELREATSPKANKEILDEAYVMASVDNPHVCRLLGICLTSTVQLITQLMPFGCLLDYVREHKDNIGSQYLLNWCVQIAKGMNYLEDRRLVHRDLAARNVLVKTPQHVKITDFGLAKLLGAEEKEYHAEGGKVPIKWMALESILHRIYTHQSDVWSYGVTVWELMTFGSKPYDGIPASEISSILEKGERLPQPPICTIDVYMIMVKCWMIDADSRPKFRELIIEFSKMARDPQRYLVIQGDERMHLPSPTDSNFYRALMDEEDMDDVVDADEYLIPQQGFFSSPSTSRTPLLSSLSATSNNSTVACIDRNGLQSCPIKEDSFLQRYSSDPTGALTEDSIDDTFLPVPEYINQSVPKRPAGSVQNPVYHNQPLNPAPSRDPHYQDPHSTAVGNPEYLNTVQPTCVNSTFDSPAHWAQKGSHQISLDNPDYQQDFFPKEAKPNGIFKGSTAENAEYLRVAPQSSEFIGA

- IC50 (EGFR^WT): 86 nM
- IC50 (VEGFR-2): 2070 nM
- IC50 (EGFR^T790M): 562 nM
SMILES: Cc1ccc(NC(=O)Cn2c(=O)c3c(ncn3C)n(C)c2=O)cc1 [T-1-PMPA, 2-(3,7-Dimethyl-2,6-dioxo-2,3,6,7-tetrahydro-1H-purin-1-yl)-N-(p-tolyl)acetamide]
